Data published in the NIST ThermoML archive (doi:10.1021/je060222y).
Values joined by “and” are separate entries in the source; they are usually repeats but may differ in a detail not shown here. Identical values can stand only once.

Legend:
[1] = for mass density: 101.33 kPa, Liquid; for Triple point temperature: Crystal
[2] = Molar enthalpy of transition or fusion; details: Crystal
[3] = molar heat capacity at constant pressure; details: 101.33 kPa, Liquid, Small sample (50 mg) DSC

CCCCn1cc[n+](C)c1.F[P-](F)(F)(F)(F)F [1-butyl-3-methylimidazolium hexafluorophosphate]
Details | Molar enthalpy of transition or fusion, [2] [kcal/mol] | mass density, [1] [kg/m3] | molar heat capacity at constant pressure, [3] [J/K/mol]
283.15 K | – | 1379.14 | 400.9
288.15 K | – | 1374.83 | 402.32
293.15 K | – | 1370.43 | 404.97
298.15 K | – | 1366.12 | 407.66
303.15 K | – | 1361.76 | 410.33
308.15 K | – | 1357.52 | 413.14
313.15 K | – | 1353.35 | 415.98
318.15 K | – | 1349.16 | 418.91
323.15 K | – | 1345.02 | 421.88
DSC | 4.76 | – | –

Details | Triple point temperature [K]
[1] | 280.03

CCCC[n+]1ccn(C)c1.O=S(=O)([N-]S(=O)(=O)C(F)(F)F)C(F)(F)F
Details | mass density, [1] | molar heat capacity at constant pressure, [3]
278.15 K | 1454.98 kg/m3 and 1453.33 kg/m3 | –
283.15 K | 1450.16 kg/m3 and 1448.52 kg/m3 | 558.99 J/K/mol and 559.63 J/K/mol
288.15 K | 1445.33 kg/m3 and 1443.69 kg/m3 | 561.29 J/K/mol and 562.05 J/K/mol
293.15 K | 1440.51 kg/m3 and 1438.89 kg/m3 | 564.02 J/K/mol and 564.58 J/K/mol
298.15 K | 1435.73 kg/m3 and 1434.1 kg/m3 | 566.47 J/K/mol and 567.33 J/K/mol
303.15 K | 1430.94 kg/m3 and 1429.31 kg/m3 | 569.01 J/K/mol and 569.74 J/K/mol
308.15 K | 1426.17 kg/m3 and 1424.54 kg/m3 | 572.11 J/K/mol and 572.82 J/K/mol
313.15 K | 1421.4 kg/m3 and 1419.78 kg/m3 | 575.03 J/K/mol and 575.56 J/K/mol
318.15 K | 1416.66 kg/m3 and 1415.04 kg/m3 | 577.84 J/K/mol and 578.49 J/K/mol
323.15 K | 1411.94 kg/m3 and 1410.31 kg/m3 | 581.06 J/K/mol and 581.68 J/K/mol
328.15 K | 1407.23 kg/m3 and 1405.6 kg/m3 | 584.36 J/K/mol and 584.82 J/K/mol
333.15 K | 1402.55 kg/m3 and 1400.92 kg/m3 | –

Details | Molar enthalpy of transition or fusion | Triple point temperature
[1] | – | 268.51 K and 267.61 K
[2] | 5.36 kcal/mol and 5.86 kcal/mol | –
